Measurements from patent publication US20040132819A1, “Appetite control method” (priority 2002, published 2004).
Where two headings read alike, the source gives them in different places.

Experiments:
[1] = Deaths during artificial rearing; type: in vivo, Sprague-Dawley rat; details: combined rearings; vs 10 rats without DHA, p=0.054
Description: Male rat pups were removed from dams on postnatal day 6 and artificially reared on rat milk formulas to day 18. This procedure has been described in detail in the literature by Sonnenberg et al, 1982; Smart et al, 1983 and 1984; and Auestad et al, 1989. Similar procedures have been also been described by Ward et al, 1998, and Wainwright et al, 1999. On postnatal day 6, rat pups were randomly assigned to one of the four experimental rat milk formula groups (Table 3.2). The rat pups were lightly anesthetized, fitted with an intragastric cannula, and placed individually in pint-sized plastic containers free floating in a waterbath maintained at 36±2° C. The cannulae for individual rat pups were each connected to syringes filled with one of the four experimental rat milk formulas using polyethylene tubing. The rat pups were fed by intermittent, intragastric infusion, from day 6 to day 18. The formula was delivered to the rat pups for 20 or 30 min each hour, depending on the age of the rat, using a programmable pump housed in a bench-top refrigerator. The pump settings were modified daily to deliver specific quantities of rat milk formula to the rat pups to support normal growth.
Two groups of rats were artificially reared one in February 2002 and one in April 2002. The plan was to cannulate a total of 64 rats, thirty-two per rearing and 8 rats per experimental formula group. […]

[2] = Postprandial leptin and circulating insulin levels; type: in vivo, Sprague-Dawley rat
Experimental: The rat pups were sacrificed by decapitation on day 20 after the food intake phase and final body weights were taken. The brain was removed, weighed, and quickly frozen (within 5 minutes) in liquid nitrogen. Brain tissue was stored in a −70° C. freezer. Blood was collected from the neck stump, mixed with heparin, placed on ice, and centrifuged to ensure adequate phase separation to prepare plasma. Plasma was stored at −70° C.
Postprandial leptin levels in the rats fed the ARA-containing formulas during the formula feeding phase were about 20-30% lower than for rats fed the formulas without ARA. Postprandial leptin levels in the rats fed the DHA-containing formulas were about 5-15% higher than for rats fed the formulas without DHA. No differences in circulating insulin levels were found among the groups.

[3] = test system: hypothalamic 20:4n-6 NAE and 20:4n-6 MAG; details: 125 or 250 μg intravenously, within 30 minutes, normal Sprague-Dawley rats; cited from earlier work
[4] = test system: rat brain phospholipid membrane; experiment: Fatty acid levels in rat brain phospholipid membrane; type: in vivo, Sprague-Dawley rat; details: ANOVA main effect
Experimental: (§1) Total lipid was extracted from rat brains using the Folch extraction method, typical for lipid extraction (Folch et al, 1957). The total lipid extract from each rat brain was separated into neutral lipid and phospholipid fractions using a silica cartridge. The neutral lipid fraction was further separated into MAG and NAE fractions using High Performance Liquid Chromatography (HPLC). Fatty acid composition of the MAG, NAE, and phospholipid fractions was determined using Gas-Liquid Chromatography (GLC) after derivatizing to the corresponding fatty acid methyl esters. The fatty acid composition results correspond to total fatty acids in the membrane phospholipids in brain, and the MAG and NAE fatty acid results represent the concentration of these fatty acyl derivatives in rat brains.
(§2) Rat brain samples, stored frozen at −70° C., were separated into the two hemispheres; one half was used for determination of fatty acids in phospholipid, MAG, and NAE fractions and the other half was refrozen at −70° C. The half brain for analysis was transferred to a 50-mL glass centrifuge tube. Eight mL of methanol was added and the sample homogenized using a Polytron Dispersing and Mixing System (Kinematica, Switzerland) until well blended. The homogenizer probe was rinsed with 2 mL methanol added directly into the centrifuge tube. Twenty mL of chloroform was then added to the sample and mixed vigorously by shaking. The sample was left undisturbed at room temperature for at least 1 hour. Known amounts of internal standards, 9.91 μg of monoheptadecanoin and 3.32 μg of docosatrienoyl ethanolamine, were added. Six mL of 0.9% saline was then added and the sample mixed vigorously by shaking. The sample was then centrifuged for 7 minutes at 2000 rpm at 15° C. until the organic and aqueous layers were well separated using a Beckman Allegra™ 6R Centrifuge; Fullerton, Calif.). The chloroform (bottom) layer was aspirated into a clean 30-mL test tube. The sample was then evaporated to dryness under N2 and was either stored at −20° C. or reconstituted in 500 μL of chloroform. […]

brain NAEs and MAGs = details: piglets fed 0.2% AA (percent total fatty acids); cited from earlier work
[5] = test system: rat brain N-acylethanolamines; experiment: N-acylethanolamine (NAE) levels in rat brain; type: in vivo, Sprague-Dawley rat
Experimental: as §1, §2

[6] = test system: rat brain monoacylglycerols; experiment: Monoacylglycerol (MAG) levels in rat brain; type: in vivo, Sprague-Dawley rat; details: ANOVA main effect
Experimental: as §1
Rat brain samples, stored frozen at −70° C., were separated into the two hemispheres; one half was used for determination of fatty acids in phospholipid, MAG, and NAE fractions and the other half was refrozen at −70° C. The half brain for analysis was transferred to a 50-mL glass centrifuge tube. Eight mL of methanol was added and the sample homogenized using a Polytron Dispersing and Mixing System (Kinematica, Switzerland) until well blended. The homogenizer probe was rinsed with 2 mL methanol added directly into the centrifuge tube. […]

[7] = test system: diet-restricted BALB/c mice; details: cited from earlier work
[8] = pre-satiated rats, subcutaneous, all doses; cited from earlier work

## CC/C=C\C/C=C\C/C=C\C/C=C\C/C=C\C/C=C\CCC(=O)O [DHA, docosahexaenoic acid]
[1]
  rats that died when DHA was in the formula: 3 rats
[2]; DHA-containing formulas
  postprandial leptin levels higher than in rats fed formulas without DHA: 5-15%

## leptin: peptide hormone secreted from adipose cells
[3]
  decrease of hypothalamic levels of 20:4n-6 NAE and 20:4n-6 MAG vs untreated controls: 40-50%

## CCCCC/C=C\C/C=C\C/C=C\C/C=C\CCCC(=O)O [AA, arachidonic acid]
[4]
  main effect on AA and C22:4n-6 levels in brain phospholipids: increasing
  main effect on brain phospholipid DHA: decreasing
  main effect on linoleic acid (C18:2n-6) and C20:3n-6 levels in brain phospholipids: decreasing
Brain NAEs and MAGs
  20:4n-6 NAE increase in brain: 4 fold
[5]; ANOVA main effect
  main effect on 20:4n-6 NAE in brain: increasing
  main effect on total n-6 NAE in brain: increasing
[5]; rats fed formulas with AA, p=0.008
  increase in 20:4n-6 NAE in brain: 40%
[6]
  main effects on n-6 or n-3 MAG in brain: no significant main effects
[2]; ARA-containing formulas during formula feeding phase
  postprandial leptin levels lower than in rats fed formulas without ARA: 20-30%

## CCCCC/C=C\C/C=C\C/C=C\C/C=C\CCCC(=O)NCCO [20:4n-6 NAE, 5,8,11,14-eicosatetraenamide, (N-2-hydroxyethyl)-(all-Z)]
[7]; 0.001 mg/kg intraperitoneally, 40% calorie restriction
  food consumption vs control group: consumed significantly more food
[7]; 0.7 or 4 mg/kg intraperitoneally
  food consumption vs control group: did not show any significant change
[8]
  effect on eating: induced significant overeating
